Columns and labels:
Format in all cases: in vivo
[1] = test system: Alopecurus myosuroides (ALOMY); test: Herbicidal pre-emergence action (C), 320 g/ha; conditions: ca. 3 weeks
Excerpt: (§1) ABUTH: Abutilon theophrasti AGSTE: Agrostis tenuis ALOMY: Alopecurus myosuroides AMARE Amaranthus retroflexus DIGSA: Digitaria sanguinalis ECHCG: Echinochloa crus-galli KCHSC: Kochia scoparia LOLRI: Lolium rigidum MATIN: Matricaria inodora POAAN: Poa annua POLCO: Polygonum convolvulus SETVI: Setaria viridis STEME: Stellaria media VERPE: Veronica persica VIOTR: Viola tricolor
(§2) Seeds of mono- and dicotyledonous weed plants and crop plants were sown, in plastic or organic planting pots, in sandy loam and covered with soil. The compounds according to the invention, formulated in the form of wettable powders (WP) or as emulsifiable concentrates (EC), were applied to the surface of the covering soil as aqueous suspension or emulsion, with the addition of 0.5% of an additive, at an application rate of 600 l of water/ha (converted).
(§3) Following treatment, the pots were placed in a greenhouse and kept under optimum growth conditions for the test plants. The visual grading of the damage to the test plants was carried out after ca. 3 weeks in comparison to untreated controls (herbicidal effect in percent (%): 100% effect=plants have died off, 0% effect=as control plants).
(§4) Tables C1 to C13 below show the effects of selected compounds of the general formula (I) according to table 1 on various harmful plants and an application rate corresponding to 320 g/ha obtained by the experimental procedure mentioned above.

[2] = test system: Echinochloa crus-galli (ECHCG); test: Herbicidal pre-emergence action (C), 320 g/ha; conditions: ca. 3 weeks
Excerpt: as §1, §2, §3, §4

[3] = test system: Kochia scoparia (KCHSC; Bassia scoparia); test: Herbicidal post-emergence action (B), 1280 g/ha
Summary of the method: (§5)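 Post-emergence spray, one-leaf stage; WP/EC formulation, aqueous, 0.5% additive, 600 L/ha water. Sandy loam, greenhouse, doubly sown pots. Visual % rating vs untreated control at ~3 weeks (100% = dead).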

[4] = test system: Matricaria inodora (MATIN); test: Herbicidal post-emergence action (B), 1280 g/ha; conditions: rated visually after about 3 weeks vs untreated controls
Summary of the method: as §5

[5] = test system: Alopecurus myosuroides (ALOMY); test: Herbicidal post-emergence action (B), 1280 g/ha; conditions: rated visually after about 3 weeks vs untreated controls
Summary of the method: as §5

[6] = test system: Veronica persica (VERPE); test: Herbicidal post-emergence action (B), 1280 g/ha
Summary of the method: as §5

[7] = test system: Poa annua (POAAN); test: Herbicidal post-emergence action (B), 1280 g/ha; conditions: rated visually after about 3 weeks vs untreated controls
Summary of the method: as §5

[8] = test system: Stellaria media (STEME); test: Herbicidal post-emergence action (B), 1280 g/ha
Summary of the method: as §5

[9] = test system: Echinochloa crus-galli (ECHCG); test: Herbicidal post-emergence action (B), 1280 g/ha; conditions: rated visually after about 3 weeks vs untreated controls
Summary of the method: as §5

[10] = test system: Abutilon theophrasti (ABUTH); test: Herbicidal post-emergence action (B), 1280 g/ha; conditions: rated visually after about 3 weeks vs untreated controls
Summary of the method: as §5

[11] = test system: Amaranthus retroflexus (AMARE); test: Herbicidal pre-emergence action (A), 1280 g/ha; conditions: visual grading after ca. 3 weeks vs untreated controls
Summary of the method: (§6)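 Seeds were sown in sandy loam pots (one mono- and one dicot weed per pot) and covered with soil; WP or EC formulations were applied to the soil surface as aqueous suspension/emulsion with 0.5% additive at 600 l water/ha. Damage was scored visually after ca. 3 weeks versus untreated controls (0% = control, 100% = dead).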

[12] = test system: Setaria viridis (SETVI); test: Herbicidal pre-emergence action (A), 1280 g/ha; conditions: visual grading after ca. 3 weeks vs untreated controls
Summary of the method: as §6

[13] = test system: Kochia scoparia (KCHSC; Bassia scoparia); test: Herbicidal pre-emergence action (A), 1280 g/ha; conditions: visual grading after ca. 3 weeks vs untreated controls
Summary of the method: as §6

[14] = test system: Matricaria inodora (MATIN); test: Herbicidal pre-emergence action (A), 1280 g/ha; conditions: visual grading after ca. 3 weeks vs untreated controls
Summary of the method: as §6

[15] = test system: Lolium rigidum (LOLRI); test: Herbicidal pre-emergence action (A), 1280 g/ha; conditions: visual grading after ca. 3 weeks vs untreated controls, 100% = plants have died off, 0% = as control plants
Summary of the method: as §6

[16] = test system: Alopecurus myosuroides (ALOMY); test: Herbicidal pre-emergence action (A), 1280 g/ha; conditions: visual grading after ca. 3 weeks vs untreated controls, 100% = plants have died off, 0% = as control plants
Summary of the method: as §6

[17] = test system: Veronica persica (VERPE); test: Herbicidal pre-emergence action (A), 1280 g/ha; conditions: visual grading after ca. 3 weeks vs untreated controls
Summary of the method: as §6

[18] = test system: Poa annua (POAAN); test: Herbicidal pre-emergence action (A), 1280 g/ha; conditions: visual grading after ca. 3 weeks vs untreated controls, 100% = plants have died off, 0% = as control plants
Summary of the method: as §6

[19] = test system: Stellaria media (STEME); test: Herbicidal pre-emergence action (A), 1280 g/ha; conditions: visual grading after ca. 3 weeks vs untreated controls
Summary of the method: as §6

[20] = test system: Echinochloa crus-galli (ECHCG); test: Herbicidal pre-emergence action (A), 1280 g/ha; conditions: visual grading after ca. 3 weeks vs untreated controls, 100% = plants have died off, 0% = as control plants
Summary of the method: as §6

[21] = test system: Alopecurus myosuroides (ALOMY); test: Herbicidal post-emergence action (D), 320 g/ha; conditions: ca. 3 weeks
Excerpt: as §1
(§7) Seeds of mono- and dicotyledonous weed plants and crop plants were sown, in plastic or organic planting pots, in sandy loam, covered with soil and grown in a greenhouse under controlled growth conditions. 2 to 3 weeks after sowing, the test plants were sprayed in the single-leaf stage. The compounds according to the invention, formulated in form of wettable powders (WP) or as emulsifiable concentrates (EC), were sprayed onto the green plant parts as aqueous suspension or emulsion, with the addition of 0.5% of an additive, at an application rate of 600 l of water/ha (converted). The test plants were placed in the greenhouse for ca. 3 weeks under optimum growth conditions, and then the effect of the preparations was assessed visually in comparison with untreated controls (herbicidal effect in percent (%): 100% effect=plants have died off, 0% effect=as control plants).
(§8) Tables D1 to D13 below show the effects of selected compounds of the general formula (I) according to table 1 on various harmful plants and an application rate corresponding to 320 g/ha obtained by the experimental procedure mentioned above.

[22] = test system: Echinochloa crus-galli (ECHCG); test: Herbicidal post-emergence action (D), 320 g/ha; conditions: ca. 3 weeks
Excerpt: as §1, §7, §8

[23] = test system: Amaranthus retroflexus (AMARE); test: Herbicidal pre-emergence action (C), 320 g/ha; conditions: ca. 3 weeks
Excerpt: as §1, §2, §3, §4

[24] = test system: Setaria viridis (SETVI); test: Herbicidal pre-emergence action (C), 320 g/ha; conditions: ca. 3 weeks
Excerpt: as §1, §2, §3, §4

[25] = test system: Lolium rigidum (LOLRI); test: Herbicidal pre-emergence action (C), 320 g/ha; conditions: ca. 3 weeks
Excerpt: as §1, §2, §3, §4

[26] = test system: Veronica persica (VERPE); test: Herbicidal pre-emergence action (C), 320 g/ha; conditions: ca. 3 weeks
Excerpt: as §1, §2, §3, §4

[27] = test system: Amaranthus retroflexus (AMARE); test: Herbicidal post-emergence action (B), 1280 g/ha; conditions: rated visually after about 3 weeks vs untreated controls
Summary of the method: as §5

[28] = test system: Setaria viridis (SETVI); test: Herbicidal post-emergence action (B), 1280 g/ha; conditions: rated visually after about 3 weeks vs untreated controls
Summary of the method: as §5

[29] = test system: Digitaria sanguinalis (DIGSA); test: Herbicidal post-emergence action (B), 1280 g/ha; conditions: rated visually after about 3 weeks vs untreated controls
Summary of the method: as §5

[30] = test system: Digitaria sanguinalis (DIGSA); test: Herbicidal pre-emergence action (A), 1280 g/ha; conditions: visual grading after ca. 3 weeks vs untreated controls, 100% = plants have died off, 0% = as control plants
Summary of the method: as §6

[31] = test system: Amaranthus retroflexus (AMARE); test: Herbicidal post-emergence action (D), 320 g/ha; conditions: ca. 3 weeks
Excerpt: as §1, §7, §8

[32] = test system: Polygonum convolvulus (POLCO); test: Herbicidal post-emergence action (D), 320 g/ha; conditions: ca. 3 weeks
Excerpt: as §1, §7, §8

[33] = test system: Setaria viridis (SETVI); test: Herbicidal post-emergence action (D), 320 g/ha; conditions: ca. 3 weeks
Excerpt: as §1, §7, §8

[34] = test system: Veronica persica (VERPE); test: Herbicidal post-emergence action (D), 320 g/ha; conditions: ca. 3 weeks
Excerpt: as §1, §7, §8

Clc1cc2scnc2nc1-c1ccsc1 [Example I-191]
herbicidal effect ALOMY [1]: 90% | herbicidal effect ECHCG [2]: 100% | herbicidal effect KCHSC [3]: 90% | herbicidal activity MATIN [4]: 90% | herbicidal activity ALOMY [5]: 100% | herbicidal effect VERPE [6]: 100% | herbicidal activity POAAN [7]: 100% | herbicidal effect STEME [8]: 90% | herbicidal activity ECHCG [9]: 100% | herbicidal activity ABUTH [10]: 90% | herbicidal effect AMARE [11]: 90% | herbicidal effect SETVI [12]: 100% | herbicidal effect KCHSC [13]: 90% | herbicidal effect MATIN [14]: 90% | LOLRI, herbicidal effect in percent (%) [15]: 100% | ALOMY, herbicidal effect in percent (%) [16]: 100% | herbicidal effect VERPE [17]: 100% | POAAN, herbicidal effect in percent (%) [18]: 100% | herbicidal effect STEME [19]: 100% | ECHCG, herbicidal effect in percent (%) [20]: 100% | herbicidal effect ALOMY [21]: 80% | herbicidal effect ECHCG [22]: 90%

C=Cc1cc2scnc2nc1-c1ccccc1F [Example I-072]
herbicidal effect AMARE [23]: 80% | herbicidal effect SETVI [24]: 100% | herbicidal effect LOLRI [25]: 100% | herbicidal effect ALOMY [1]: 100% | herbicidal effect VERPE [26]: 80% | herbicidal effect ECHCG [2]: 100% | herbicidal activity AMARE [27]: 100% | herbicidal activity SETVI [28]: 90% | herbicidal effect KCHSC [3]: 90% | herbicidal activity MATIN [4]: 90% | herbicidal activity ALOMY [5]: 100% | herbicidal effect VERPE [6]: 100% | herbicidal activity POAAN [7]: 100% | herbicidal effect STEME [8]: 90% | herbicidal activity ECHCG [9]: 90% | herbicidal activity DIGSA [29]: 90% | herbicidal effect AMARE [11]: 100% | herbicidal effect SETVI [12]: 100% | herbicidal effect KCHSC [13]: 100% | herbicidal effect MATIN [14]: 100% | LOLRI, herbicidal effect in percent (%) [15]: 100% | ALOMY, herbicidal effect in percent (%) [16]: 100% | herbicidal effect VERPE [17]: 100% | POAAN, herbicidal effect in percent (%) [18]: 100% | herbicidal effect STEME [19]: 90% | ECHCG, herbicidal effect in percent (%) [20]: 100% | DIGSA, herbicidal effect in percent (%) [30]: 100% | herbicidal effect AMARE [31]: 80% | herbicidal effect POLCO [32]: 80%

COc1ccccc1-c1nc2nc(SC)sc2cc1C [Example I-007]
herbicidal activity AMARE [27]: 100% | herbicidal effect KCHSC [3]: 90% | herbicidal activity MATIN [4]: 100% | herbicidal effect VERPE [6]: 90% | herbicidal effect STEME [8]: 100% | herbicidal activity ABUTH [10]: 90% | herbicidal activity DIGSA [29]: 100% | herbicidal effect SETVI [12]: 100% | POAAN, herbicidal effect in percent (%) [18]: 90%

Fc1cccc(-c2ccc3scnc3n2)c1 [Example I-118]
herbicidal activity AMARE [27]: 90% | herbicidal activity MATIN [4]: 100% | herbicidal effect VERPE [6]: 90% | herbicidal activity POAAN [7]: 100% | herbicidal effect AMARE [11]: 90% | herbicidal effect SETVI [12]: 100% | herbicidal effect MATIN [14]: 90% | LOLRI, herbicidal effect in percent (%) [15]: 100% | POAAN, herbicidal effect in percent (%) [18]: 100% | herbicidal effect STEME [19]: 100% | DIGSA, herbicidal effect in percent (%) [30]: 100%

CCCc1cc2scnc2nc1-c1ccccc1F [Example I-185]
herbicidal effect SETVI [24]: 100% | herbicidal effect LOLRI [25]: 100% | herbicidal effect ALOMY [1]: 90% | herbicidal effect ECHCG [2]: 100% | herbicidal activity AMARE [27]: 100% | herbicidal activity SETVI [28]: 90% | herbicidal effect KCHSC [3]: 90% | herbicidal effect VERPE [6]: 90% | herbicidal activity ECHCG [9]: 90% | herbicidal effect KCHSC [13]: 90% | herbicidal effect MATIN [14]: 90% | LOLRI, herbicidal effect in percent (%) [15]: 100% | herbicidal effect VERPE [17]: 90% | POAAN, herbicidal effect in percent (%) [18]: 100% | herbicidal effect STEME [19]: 90% | ECHCG, herbicidal effect in percent (%) [20]: 100% | herbicidal effect SETVI [33]: 90% | herbicidal effect VERPE [34]: 90% | herbicidal effect POLCO [32]: 80% | herbicidal effect ECHCG [22]: 80%

From patent US20230151025A1, “SUBSTITUTED THIAZOLOPYRIDINES, SALTS THEREOF AND THEIR USE AS HERBICIDALLY ACTIVE SUBSTANCES” (Bayer Aktiengesellschaft, priority 2020, published 2023)
